The numbers were not newly measured in patent publication US8067405B2, “Superoxide dismutase mimics for the treatment of ocular disorders and diseases” (Novartis AG, priority 2002, dated 2011), which cites them from elsewhere.

In the data set the test system is diabetogenic T-cell clone. Conditions: in a cloned cell.

As to `CCN1C=CC=C/C1=C1/C2=NC(=C(c3cccc[n+]3CC)C3=NC(=C(c4cccc[n+]4CC)c4ccc([n-]4)C(c4cccc[n+]4CC)=C4C=CC1=N4)C=C3)C=C2.[Cl-].[Cl-].[Cl-].[Cl-].[Cl-].[Mn+3]` [AEOL10113], the onset of diabetes entry was “delay the onset of diabetes”.
